Results taken from PubChem BioAssay (NCI).
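These data come from cells grown in 96-well plates and exposed to compound for 48 hours at five concentrations. Here, GI50 denotes the concentration required for 50% inhibition of growth. At the TGI there is no net growth.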

Legend:
Assay in all cases: growth of human tumour cells (NCI), 48 h
786-0 renal = test system: 786-0 renal
A498 renal = test system: A498 renal
A549 NSCLC = test system: A549 NSCLC
ACHN renal = test system: ACHN renal
BT-549 breast = test system: BT-549 breast
CAKI-1 renal = test system: CAKI-1 renal
CCRF-CEM leukemia = test system: CCRF-CEM leukemia
COLO 205 colon = test system: COLO 205 colon
DU-145 prostate = test system: DU-145 prostate
EKVX NSCLC = test system: EKVX NSCLC
HCC-2998 colon = test system: HCC-2998 colon
HCT-116 colon = test system: HCT-116 colon
HCT-15 colon = test system: HCT-15 colon
HL-60(TB) leukemia = test system: HL-60(TB) leukemia
HOP-62 NSCLC = test system: HOP-62 NSCLC
HOP-92 NSCLC = test system: HOP-92 NSCLC
HS 578T breast = test system: HS 578T breast
HT29 colon = test system: HT29 colon
IGROV1 ovarian = test system: IGROV1 ovarian
K-562 leukemia = test system: K-562 leukemia
KM12 colon = test system: KM12 colon
LOX IMVI melanoma = test system: LOX IMVI melanoma
M14 melanoma = test system: M14 melanoma
MALME-3M melanoma = test system: MALME-3M melanoma
MCF7 breast = test system: MCF7 breast
MDA-MB-231 breast = test system: MDA-MB-231 breast
MDA-MB-435 = test system: MDA-MB-435
MOLT-4 leukemia = test system: MOLT-4 leukemia
NCI-H226 lung = test system: NCI-H226 lung
NCI-H23 lung = test system: NCI-H23 lung
NCI-H460 lung = test system: NCI-H460 lung
NCI-H522 lung = test system: NCI-H522 lung
NCI/ADR-RES ovarian = test system: NCI/ADR-RES ovarian
OVCAR-3 ovarian = test system: OVCAR-3 ovarian
OVCAR-4 ovarian = test system: OVCAR-4 ovarian
OVCAR-5 ovarian = test system: OVCAR-5 ovarian
OVCAR-8 ovarian = test system: OVCAR-8 ovarian
PC-3 prostate = test system: PC-3 prostate
RPMI-8226 leukemia = test system: RPMI-8226 leukemia
RXF 393 renal = test system: RXF 393 renal
SF-268 CNS = test system: SF-268 CNS
SF-295 CNS = test system: SF-295 CNS
SF-539 CNS = test system: SF-539 CNS
SK-MEL-2 melanoma = test system: SK-MEL-2 melanoma
SK-MEL-28 melanoma = test system: SK-MEL-28 melanoma
SK-MEL-5 melanoma = test system: SK-MEL-5 melanoma
SK-OV-3 ovarian = test system: SK-OV-3 ovarian
SN12C renal = test system: SN12C renal
SNB-19 CNS = test system: SNB-19 CNS
SNB-75 CNS = test system: SNB-75 CNS
SR leukemia = test system: SR leukemia
SW-620 colon = test system: SW-620 colon
T-47D breast = test system: T-47D breast
TK-10 renal = test system: TK-10 renal
U251 CNS = test system: U251 CNS
UACC-257 melanoma = test system: UACC-257 melanoma
UACC-62 melanoma = test system: UACC-62 melanoma
UO-31 renal = test system: UO-31 renal

Work on `COc1ccc(/C=C(\C#N)n2nnc3cc(Cl)ccc32)cc1` yielded a GI50 (786-0 renal) of 709 nM, a TGI (786-0 renal) of 8.61 µM and a GI50 (A498 renal) of 201 nM. For the same molecule, the TGI (A498 renal) was 3.11 µM, the GI50 (A549 NSCLC) was 714 nM and the TGI (A549 NSCLC) was greater than 100 µM. It also gave a GI50 (ACHN renal) of 593 nM, a TGI (ACHN renal) greater than 43.5 µM and a GI50 (BT-549 breast) of 1130 nM. It also gave a TGI (BT-549 breast) greater than 100 µM, a GI50 (CAKI-1 renal) of 461 nM and a TGI (CAKI-1 renal) greater than 100 µM. It also gave a GI50 (CCRF-CEM leukemia) of 431 nM, a TGI (CCRF-CEM leukemia) greater than 100 µM and a GI50 (COLO 205 colon) of 513 nM. It also gave a TGI (COLO 205 colon) of 7.01 µM, a GI50 (DU-145 prostate) of 1710 nM and a TGI (DU-145 prostate) of 7.58 µM. It also gave a GI50 (EKVX NSCLC) of 1470 nM, a TGI (EKVX NSCLC) greater than 78 µM and a GI50 (HCC-2998 colon) of 1870 nM. For the same molecule, the TGI (HCC-2998 colon) was 8.14 µM, the GI50 (HCT-116 colon) was 412 nM and the TGI (HCT-116 colon) was 26.2 µM. It also gave a GI50 (HCT-15 colon) of 328 nM, a TGI (HCT-15 colon) of 11.4 µM and a GI50 (HL-60(TB) leukemia) of 327 nM. It also gave a TGI (HL-60(TB) leukemia) greater than 100 µM, a GI50 (HOP-62 NSCLC) of 887 nM and a TGI (HOP-62 NSCLC) of 11.1 µM. For the same molecule, the GI50 (HOP-92 NSCLC) was 552 nM, the TGI (HOP-92 NSCLC) was 4.27 µM and the GI50 (HS 578T breast) was 2550 nM. It also gave a TGI (HS 578T breast) of 9.37 µM, a GI50 (HT29 colon) of 334 nM and a TGI (HT29 colon) greater than 100 µM. The GI50 (IGROV1 ovarian) was 606 nM, the TGI (IGROV1 ovarian) was greater than 37.9 µM and the GI50 (K-562 leukemia) was 217 nM. It also gave a TGI (K-562 leukemia) greater than 100 µM, a GI50 (KM12 colon) of 1330 nM and a TGI (KM12 colon) of 37.1 µM. The GI50 (LOX IMVI melanoma) was 887 nM, the TGI (LOX IMVI melanoma) was 9.4 µM and the GI50 (M14 melanoma) was 373 nM. It also gave a TGI (M14 melanoma) of 6.63 µM, a GI50 (MALME-3M melanoma) of 1220 nM and a TGI (MALME-3M melanoma) of 11.3 µM. It also gave a GI50 (MCF7 breast) of 375 nM, a TGI (MCF7 breast) greater than 33.3 µM and a GI50 (MDA-MB-231 breast) of 1090 nM. For the same molecule, the TGI (MDA-MB-231 breast) was 10.2 µM, the GI50 (MDA-MB-435) was 124 nM and the TGI (MDA-MB-435) was 342 nM. It also gave a GI50 (MOLT-4 leukemia) of 1090 nM, a TGI (MOLT-4 leukemia) greater than 100 µM and a GI50 (NCI-H226 lung) of 1270 nM. It also gave a TGI (NCI-H226 lung) greater than 23.3 µM, a GI50 (NCI-H23 lung) of 1670 nM and a TGI (NCI-H23 lung) greater than 33.6 µM. The GI50 (NCI-H460 lung) was 2830 nM, the TGI (NCI-H460 lung) was greater than 56.6 µM and the GI50 (NCI-H522 lung) was 180 nM. For the same molecule, the TGI (NCI-H522 lung) was 704 nM, the GI50 (NCI/ADR-RES ovarian) was 299 nM and the TGI (NCI/ADR-RES ovarian) was 4.58 µM. The GI50 (OVCAR-3 ovarian) was 253 nM, the TGI (OVCAR-3 ovarian) was 695 nM and the GI50 (OVCAR-4 ovarian) was 2510 nM. It also gave a TGI (OVCAR-4 ovarian) greater than 100 µM, a GI50 (OVCAR-5 ovarian) of 1400 nM and a TGI (OVCAR-5 ovarian) of 6.44 µM. It also gave a GI50 (OVCAR-8 ovarian) of 751 nM, a TGI (OVCAR-8 ovarian) greater than 100 µM and a GI50 (PC-3 prostate) of 498 nM. The TGI (PC-3 prostate) was greater than 75.2 µM, the GI50 (RPMI-8226 leukemia) was 694 nM and the TGI (RPMI-8226 leukemia) was greater than 100 µM. It also gave a GI50 (RXF 393 renal) of 787 nM, a TGI (RXF 393 renal) of 2620 nM and a GI50 (SF-268 CNS) of 2000 nM. For the same molecule, the TGI (SF-268 CNS) was greater than 100 µM, the GI50 (SF-295 CNS) was 1180 nM and the TGI (SF-295 CNS) was 6.43 µM. It also gave a GI50 (SF-539 CNS) of 1250 nM, a TGI (SF-539 CNS) of 3.5 µM and a GI50 (SK-MEL-2 melanoma) of 483 nM. For the same molecule, the TGI (SK-MEL-2 melanoma) was greater than 47.6 µM, the GI50 (SK-MEL-28 melanoma) was 1330 nM and the TGI (SK-MEL-28 melanoma) was 31.2 µM. For the same molecule, the GI50 (SK-MEL-5 melanoma) was 2360 nM, the TGI (SK-MEL-5 melanoma) was 10.6 µM and the GI50 (SK-OV-3 ovarian) was 7.09 µM. For the same molecule, the TGI (SK-OV-3 ovarian) was greater than 82.3 µM, the GI50 (SN12C renal) was 662 nM and the TGI (SN12C renal) was greater than 100 µM. It also gave a GI50 (SNB-19 CNS) of 1120 nM, a TGI (SNB-19 CNS) greater than 41.4 µM and a GI50 (SNB-75 CNS) of 193 nM. For the same molecule, the TGI (SNB-75 CNS) was 983 nM, the GI50 (SR leukemia) was 336 nM and the TGI (SR leukemia) was greater than 100 µM. It also gave a GI50 (SW-620 colon) of 351 nM, a TGI (SW-620 colon) greater than 100 µM and a GI50 (T-47D breast) of 407 nM. For the same molecule, the GI50 (TK-10 renal) was 1650 nM, the TGI (TK-10 renal) was 11.5 µM and the GI50 (U251 CNS) was 630 nM. The TGI (U251 CNS) was 9.53 µM, the GI50 (UACC-257 melanoma) was 2400 nM and the TGI (UACC-257 melanoma) was greater than 100 µM. The GI50 (UACC-62 melanoma) was 382 nM, the TGI (UACC-62 melanoma) was 9.66 µM and the GI50 (UO-31 renal) was 2200 nM. The TGI (UO-31 renal) was 32.4 µM.
